This data set deals with GENE-TOX genotoxicity assays, various organisms and cells. Briefly: GENE-TOX mutagenicity studies. To be noted: for call: Assay Type: In vivo carcinogenicity studies, Assay Code: CCG+.
Setting [1] is: Species/Cell Type: Nonhuman, Assay Type: Sister-chromatid exchange (SCE) in vitro, Assay Code: SC2+D, Dose Response: With dose response, Evaluation Type: Evaluation B (Post-1980).
[2] abbreviates: Species/Cell Type: Salmonella typhimurium (one or more of the five standard strains: TA98, TA100, TA1535, TA1537, and TA1538), Assay Type: Histidine reverse gene mutation, Ames assay, Assay Code: SAL+*, Activation: With metabolic activation, Evaluation Type: Evaluation A (Pre-1980).
Where [3] appears, read: Species/Cell Type: Nonhuman, Assay Type: Sister-chromatid exchange (SCE) in vitro, Assay Code: SC2T, Evaluation Type: Evaluation A (Pre-1980).
Setting [4] is: Species/Cell Type: Human, Assay Type: Sister-chromatid exchange (SCE) in vitro, Assay Code: SC1+D, Dose Response: With dose response, Evaluation Type: Evaluation B (Post-1980).
Where [5] appears, read: Species/Cell Type: Salmonella typhimurium (one or more of the five standard strains: TA98, TA100, TA1535, TA1537, and TA1538), Assay Type: Histidine reverse gene mutation, Ames assay, Assay Code: SAL+, Evaluation Type: Evaluation A (Pre-1980).
Where [6] appears, read: Species/Cell Type: Nonhuman, Evaluation Type: Evaluation A (Pre-1980).
The mark [7] stands for this setting: Species/Cell Type: Chinese hamster lung (V79) cells, Assay Type: Forward gene mutation at the HPRT or ouabain locus, Assay Code: V79+, Evaluation Type: Evaluation A (Pre-1980).
Where [8] appears, read: Species/Cell Type: Salmonella typhimurium (one or more of the five standard strains: TA98, TA100, TA1535, TA1537, and TA1538), Assay Type: Histidine reverse gene mutation, Ames assay, Assay Code: SALT, Evaluation Type: Evaluation A (Pre-1980).
Setting [9] is: Species/Cell Type: Bacillus subtilis (H17 vs M45), Assay Type: Rec-assay, spot test, DNA effects (bacterial DNA repair), Assay Code: REW+, Evaluation Type: Evaluation A (Pre-1980).
Setting [10] is: Species/Cell Type: Mammalian polychromatic erythrocytes, Assay Type: Micronucleus test, chromosome aberrations, Assay Code: MNT+, Evaluation Type: Evaluation B (Post-1980).
Where [11] appears, read: Species/Cell Type: Neurospora crassa, Assay Type: Forward gene mutation, Assay Code: NEF+, Evaluation Type: Evaluation A (Pre-1980).
[12] abbreviates: Species/Cell Type: Mammalian polychromatic erythrocytes, Assay Type: Micronucleus test, chromosome aberrations, Assay Code: MNTT, Evaluation Type: Evaluation A (Pre-1980).
The mark [13] stands for this setting: Species/Cell Type: Mouse, Sex: Male, Assay Type: Sperm morphology, Assay Code: SPI-, Evaluation Type: Evaluation A (Pre-1980).
[14] abbreviates: Species/Cell Type: Syrian hamster embryo (SHE) cells, Assay Type: Cell transformation, clonal assay, Assay Code: CTC+, Evaluation Type: Evaluation A (Pre-1980).
[15] abbreviates: Species/Cell Type: Nonhuman, Assay Type: Sister-chromatid exchange (SCE) in vitro, Assay Code: SC2T, Evaluation Type: Evaluation B (Post-1980).

Structures are written as SMILES. Active and inactive are the calls of the source. The rule behind the calls is not given here.

For `CN(N=O)C(=O)Nc1ccc(Br)cc1`, under setting [1], the mutagenic call was “active; positive”.
In the case of `O=C1C=C(N2CC2)C(=O)C2=C1CCCC2`, under “Species/Cell Type: Drosophila melanogaster, Assay Type: Sex-linked recessive lethal gene mutation, Assay Code: SRL+, Evaluation Type: Evaluation A (Pre-1980)”, the mutagenic call was “active; positive”.
For `NNc1nnc(NN)c2ccccc12`, for the setting “Species/Cell Type: Nonhuman, Assay Type: Sister-chromatid exchange (SCE) in vivo, Assay Code: SC3+, Evaluation Type: Evaluation B (Post-1980)”, the mutagenic call was “active; positive”.
`COc1cc2c(c3c(C)cc4ccccc4c13)CCC2=O`: the mutagenic call under setting [2] was “active; positive”.
In the case of `CCCCOC(=O)c1ccccc1C(=O)OCCCC`, the mutagenic call is, setting by setting: (Species/Cell Type: Nonhuman, Assay Type: Sister-chromatid exchange (SCE) in vitro, Assay Code: SC2+, Evaluation Type: Evaluation B (Post-1980)) “active; positive”; under setting [3], “no conclusion”; (Species/Cell Type: Saccharomyces cerevisiae, Assay Type: Reverse gene mutation, Assay Code: YER-*, Activation: With metabolic activation, Evaluation Type: Evaluation A (Pre-1980)) “inactive; negative”.
Take `O=c1[nH]c(=O)n([C@H]2C[C@H](O)[C@@H](CO)O2)cc1/C=C/C(F)(F)F`: the mutagenic call under setting [4] was “active; positive”.
On to `O=S1(=O)OC2(c3ccccc31)c1cc(Br)c(O)c(Br)c1Oc1c2cc(Br)c(O)c1Br`, for which the mutagenic call under setting [5] is “active; positive”.
Turning to `CC(=O)Nc1ccc(N=Nc2cc(C)ccc2O)cc1`, under setting [6], the call was “active; positive”.
Regarding `CCCCCN(CCCCC)N=O`, the mutagenic call under setting [7] was “active; positive” and the mutagenic call under setting [2] was “active; positive”.
Turning to `CNc1ccc(N(CCO)CCO)cc1[N+](=O)[O-]`, the mutagenic call was “no conclusion” (Species/Cell Type: Mammalian polychromatic erythrocytes, Assay Type: Micronucleus test, chromosome aberrations, Assay Code: MNTT, Evaluation Type: Evaluation B (Post-1980)) and “active; positive” under setting [1]. The call under setting [6] is “active; positive”.
In the case of `Nc1nc(N)c2cc(S(=O)(=O)c3ccc4ccccc4c3)ccc2n1`, the mutagenic call under setting [8] is “no conclusion”.
For the compound `CC(C(=O)O)c1ccc(C(=O)c2ccccc2)s1` (stereo not drawn), under “Species/Cell Type: Human lymphocytes, Assay Type: Sister-chromatid exchange (SCE) in vivo, Assay Code: SCY+, Evaluation Type: Evaluation B (Post-1980)”, the mutagenic call is “active; positive”.
In the case of `[O]=[V]`, the mutagenic call under setting [9] is “active; positive”.
Take `CCCC(=O)Nc1ccc(OCC(O)CNC(C)C)c(C(C)=O)c1` (stereo not drawn): the mutagenic call under setting [10] was “active; positive”.
`CNC(=O)Oc1ccccc1C(C)C`: the mutagenic call is “inactive; negative” (Species/Cell Type: Bacillus subtilis (H17 vs M45T), Assay Type: Rec-assay, spot test, DNA effects (bacterial DNA repair), Assay Code: REX-, Evaluation Type: Evaluation A (Pre-1980)) and “inactive; negative” (Species/Cell Type: Escherichia coli WP2, Assay Type: Tryptophan reverse gene mutation, Assay Code: WP2-, Evaluation Type: Evaluation A (Pre-1980)).
As for `ONc1ncnc2nc[nH]c12`, the mutagenic call under setting [11] is “active; positive”.
For `CCOP(=S)(OCC)SCSc1ccc(Cl)cc1`, the mutagenic call (Species/Cell Type: Human, Assay Type: Sister-chromatid exchange (SCE) in vitro, Assay Code: SC1+, Evaluation Type: Evaluation B (Post-1980)) was “active; positive”.
As to `NC(=O)/C(=C\c1ccc([N+](=O)[O-])o1)c1ccco1`, the mutagenic call under setting [9] is “active; positive”; the mutagenic call under setting [7] was “active; positive”; the mutagenic call (Species/Cell Type: Drosophila melanogaster, Assay Type: Sex-linked recessive lethal gene mutation, Assay Code: SRLT, Evaluation Type: Evaluation A (Pre-1980)) is “no conclusion”; the mutagenic call (Species/Cell Type: Escherichia coli WP2 UVRA, Assay Type: Tryptophan reverse gene mutation, Assay Code: WPU+D, Dose Response: With dose response, Evaluation Type: Evaluation A (Pre-1980)) is “active; positive”; the mutagenic call (Species/Cell Type: Human diploid fibroblasts, Assay Type: Unscheduled DNA synthesis (UDS) in vitro, DNA effects, Assay Code: UDHT, Evaluation Type: Evaluation A (Pre-1980)) is “no conclusion”; the mutagenic call under setting [4] was “active; positive”. Also, the mutagenic call is “no conclusion” under setting [12]; “active; positive” (Species/Cell Type: Mouse lymphoma (L5178Y) cells, Assay Type: Forward gene mutation at the thymidine kinase (TK) locus, chromosome aberrations, Assay Code: L51+, Evaluation Type: Evaluation A (Pre-1980)); “inactive; negative” under setting [13]; “active; positive” under setting [11]; “active; positive” (Species/Cell Type: Neurospora crassa, Assay Type: Reverse gene mutation, Assay Code: NER+, Evaluation Type: Evaluation A (Pre-1980)); “active; positive” under setting [1]. Further, the mutagenic call was “inactive; negative” (Species/Cell Type: Rodents, Sex: Male, Assay Type: Dominant lethal test, Assay Code: DLT-, Evaluation Type: Evaluation A (Pre-1980)); “active; positive” (Species/Cell Type: Saccharomyces cerevisiae, Assay Type: Mitotic recombination or gene conversion, Assay Code: YEC+, Evaluation Type: Evaluation A (Pre-1980)); “active; positive” (Species/Cell Type: Saccharomyces cerevisiae, Assay Type: Mitotic recombination or gene conversion, Assay Code: YEH+, Evaluation Type: Evaluation A (Pre-1980)); “active; positive” (Species/Cell Type: Saccharomyces cerevisiae, Assay Type: Reverse gene mutation, Assay Code: YER+, Evaluation Type: Evaluation A (Pre-1980)); “active; positive” under setting [5]; “active; positive” under setting [14]. Further, the call under setting [6] was “active; positive”.
In the case of `CC(C)(c1ccc(OCC2CO2)cc1)c1ccc(OCC2CO2)cc1` (stereo not drawn), under setting [2], the mutagenic call is “active; positive”.
For `CC1(C)C(C=C(Cl)Cl)C1C(=O)OC(C#N)c1cccc(Oc2ccccc2)c1` (stereo not drawn), the mutagenic call was “inactive; negative” (Species/Cell Type: Human diploid fibroblasts, Assay Type: Unscheduled DNA synthesis (UDS) in vitro, DNA effects, Assay Code: UDH-, Evaluation Type: Evaluation A (Pre-1980)); “active; positive” under setting [10]; “inactive; negative” (Species/Cell Type: Saccharomyces cerevisiae, Assay Type: Mitotic recombination or gene conversion, Assay Code: YEH-, Evaluation Type: Evaluation A (Pre-1980)).
For the compound `OC[C@H]1O[C@@](CO)(O[C@H]2O[C@H](CO)[C@@H](O)[C@H](O)[C@H]2O)[C@@H](O)[C@@H]1O`, the mutagenic call under setting [12] is given as “no conclusion” and the mutagenic call under setting [15] is reported as “no conclusion”.
With `OCCBr`, the mutagenic call is “active; positive” (Species/Cell Type: Escherichia coli polA (W3119 vs P3478), Assay Type: Rec-assay, DNA effects (bacterial DNA repair), Assay Code: RE1+, Evaluation Type: Evaluation A (Pre-1980)); “inactive; negative” under setting [13]; “active; positive” under setting [5]; “active; positive” (Species/Cell Type: Tradescantia species, Assay Type: Gene mutation, Assay Code: TRM+D, Dose Response: With dose response, Evaluation Type: Evaluation A (Pre-1980)).
For `COc1cc(NC(=O)c2ccccc2)c(OC)cc1[N+]#N`, the mutagenic call (Species/Cell Type: Bacillus subtilis (H17 vs M45), Assay Type: Rec-assay, spot test, DNA effects (bacterial DNA repair), Assay Code: REWT, Evaluation Type: Evaluation A (Pre-1980)) is given as “no conclusion”.
Turning to `CCn1c(=O)c2c(ncn2CC)n(CC)c1=O`, for the setting “Species/Cell Type: Allium cepa, Assay Type: Chromosome aberrations, Assay Code: ALC-, Evaluation Type: Evaluation A (Pre-1980)”, the mutagenic call was “inactive; negative”.
Regarding `CCNC(=O)N(CC)N=O`, the mutagenic call (Species/Cell Type: Zea mays (corn), Assay Type: Gene mutation, Assay Code: ZEM+D, Dose Response: With dose response, Evaluation Type: Evaluation A (Pre-1980)) was “active; positive”.
With `O=CNc1nc(-c2ccc([N+](=O)[O-])s2)cs1`, under setting [5], the mutagenic call is “active; positive”.
In the case of `C=CCCCCCC=CCC#CC#CC=CC`, the mutagenic call under setting [15] is recorded as “no conclusion”.
For `O=C(COc1ccc(Br)cc1CN1CCOCC1)N/N=C/c1ccccc1`, the mutagenic call (Species/Cell Type: Saccharomyces cerevisiae, Assay Type: Reverse gene mutation, Assay Code: YERT, Evaluation Type: Evaluation A (Pre-1980)) is “no conclusion”.
Take `CC1C[C@@H]2CCC[C@H]2[C@@H]2CCC3CCCC[C@@H]3[C@@H]12` (stereo partly drawn): the mutagenic call under setting [14] is “active; positive”.
Regarding `CCCCNCCCCO`, the mutagenic call is, setting by setting: (Species/Cell Type: Nonhuman, Assay Type: Chromosome aberrations in vitro, Assay Code: CY&-, Evaluation Type: Evaluation A (Pre-1980)) “inactive; negative”; under setting [3], “no conclusion”.
Regarding `O[C@@H]1c2cccc3ccc4cc5ccccc5c(c4c23)[C@H]1O`, the mutagenic call is “active; positive” under setting [7] and “no conclusion” under setting [8].

Values taken from PubChem BioAssay AID1259408 (Genetic Toxicology Data Bank (GENE-TOX), 2018).
